Reference: patent publication US11787799B2 (priority 2015, dated 2023)
Read-outs that look alike come from different tables or passages of the source.

Columns and labels:
in vitro [1] = details: African green monkey
Measles = experiment: microbe, parasite or virus in culture; format: cell-based
Yellow Fever Virus = experiment: microbe, parasite or virus in culture; format: cell-based; details: read-out: EC50 Yellow Fever Virus
in vitro [2] = details: African green monkey; remark: listed apart in the source
Coxsackievirus A9 = experiment: microbe, parasite or virus in culture; format: cell-based
Coxsackievirus B4 = experiment: microbe, parasite or virus in culture; format: cell-based
Coxsackievirus B3-H3 = experiment: microbe, parasite or virus in culture; format: cell-based
Coxsackievirus B1 = experiment: microbe, parasite or virus in culture; format: cell-based
Poliovirus 3 = experiment: microbe, parasite or virus in culture; format: cell-based; details: read-out: EC50 PV3
Echovirus 25 = experiment: microbe, parasite or virus in culture; format: cell-based; details: read-out: EC50 ECHO25
[3] = system: Enterovirus D68/US/KY/14-18953; experiment: Antiviral assay, Enterovirus D68 strain US/KY/14-18953 in RD cells; format: cell-based
[4] = system: RSV (resp syncitial virus); experiment: microbe, parasite or virus in culture; format: cell-based
Enterovirus 71 = experiment: microbe, parasite or virus in culture; format: cell-based
Venezuelan Encephalitis = format: cell-based, Venezuelan encephalitis virus
Echovirus 11 = experiment: microbe, parasite or virus in culture; format: cell-based; details: read-out: EC50 ECHO11
Rift Valley virus = experiment: organism not typed; format: cell-based
Influenza A H1N1 = experiment: microbe, parasite or virus in culture; format: cell-based; details: read-out: EC50 Influenza A H1N1
BHK = details: read-out: CC50 (Powassan test)
Echovirus 9 = experiment: microbe, parasite or virus in culture; format: cell-based; details: read-out: EC50 ECHO09
Rabies = format: cell-based, rabies virus
Echovirus 7 = experiment: microbe, parasite or virus in culture; format: cell-based; details: read-out: EC50 ECHO07
Powassan = format: cell-based, Powassan virus
Coxsackievirus B5 = experiment: microbe, parasite or virus in culture; format: cell-based
BHK-21 = details: read-out: CC50 (Rabies test)
Punta Toro virus = experiment: microbe, parasite or virus in culture; format: cell-based
Echovirus 6 = experiment: microbe, parasite or virus in culture; format: cell-based; details: read-out: EC50 ECHO06
Chikungunya = format: cell-based, chikungunya virus
Japanese Encephalitis = format: cell-based
Vero = details: read-out: CC50 (Yellow Fever Virus test)
Echovirus 30 = experiment: microbe, parasite or virus in culture; format: cell-based; details: read-out: EC50 ECHO30
[5] = system: Enterovirus D68/US/Mo/14-18949; experiment: Antiviral assay, Enterovirus D68 strain US/Mo/14-18949 in RD cells; format: cell-based
Poliovirus 1 = experiment: microbe, parasite or virus in culture; format: cell-based; details: read-out: EC50 PV1
Coxsackievirus B2 = experiment: microbe, parasite or virus in culture; format: cell-based
Enterovirus D68/Fermon = experiment: Antiviral assay, Enterovirus D68 strain Fermon in RD cells; format: cell-based
SARS Coronavirus = format: cell-based
in vitro [6] = details: human
in vitro [7] = experiment: in vitro
in vitro [8] = details: dog
[9] = read-out: EC50 Rift Valley virus
[10] = read-out: EC50 Punta Toro virus
[11] = read-out: CC50 (Rift Valley virus test), with Rift Valley virus MP-12 test
[12] = read-out: CC50 (SARS Coronavirus test), with SARS Coronavirus Urbani test
[13] = Enterovirus B, A9, read-out: EC50 COX A9
[14] = Enterovirus B, B4 / CVB4, read-out: EC50 CVB4
[15] = Coxsackievirus, B3 / CVB3, read-out: EC50 CVB3-H3
[16] = Enterovirus B, B1 / CVB1, read-out: EC50 CVB1
[17] = Enterovirus A, EV71, read-out: EC50 EV71
[18] = Enterovirus B, B5 / CVB5, read-out: EC50 CVB5
[19] = Enterovirus B, B2 / CVB2, read-out: EC50 CVB2

With `Nc1cc2nc[nH]c2c(=O)[nH]1` [3-Deazaguanine, reference compound] the CC50 (in vitro [1]) was > 100 µM and the EC50 (Measles; Measles morbillivirus, Vero 76, read-out: EC50 Measles) was 2.4 µM.

`O=c1cnn([C@@H]2O[C@H](CO)[C@@H](O)[C@H]2O)c(=O)[nH]1` [Compound 6-Azauridine, 6-Azauridine, reference compound] showed an EC50 (Yellow Fever Virus; Yellow fever virus, Vero) of 0.29 µM and a CC50 (in vitro [2]) of 10 µM.

For `CC(C)n1ncc2c(C(=O)Nc3ccccc3F)cc(-c3cccs3)nc21` [JX-001], the EC50 (Coxsackievirus A9; read-out: EC50 COX A9) was 2.6 ± 0.9 µM, the EC50 (Coxsackievirus B4; read-out: EC50 CVB4) was 2.3 µM and the EC50 (Coxsackievirus B3-H3; read-out: EC50 CVB3-H3) was 1.4 ± 0.6 µM. For the same molecule, the EC50 (Coxsackievirus B1; read-out: EC50 CVB1) was 2.4 ± 0.2 µM, the EC50 (Poliovirus 3) was 7 µM and the EC50 (Echovirus 25) was 3 µM. The EC50 (Yellow Fever Virus) was > 4.8 µM, the EC50 [3] was 0.5 ± 0.17 µM and the EC50 ([4]; read-out: EC50 RSV) was 3.4 µM. The EC50 (Enterovirus 71; read-out: EC50 EV71) was 1.8 ± 0.5 µM, the CC50 (MA-104) was 4.7 µM and the EC50 (Venezuelan Encephalitis) was > 0.98 µM. For the same molecule, the EC50 (Echovirus 11) was 1.5 ± 0.4 µM, the CC50 (HeLa-RW cells) was 12.5 µM and the EC50 (Rift Valley virus; [9]) was > 50 µM. The EC50 (Influenza A H1N1) was > 100 µM, the CC50 (BHK) was > 33 µM and the EC50 (Echovirus 9) was 2.1 ± 1.2 µM. The EC50 (Rabies) was > 100 µM, the EC50 (Echovirus 7) was 2.4 µM and the EC50 (Powassan) was > 33 µM. For the same molecule, the EC50 (Coxsackievirus B5; read-out: EC50 CVB5) was 2.3 µM, the CC50 (BHK-21) was > 100 µM and the CC50 (MDCK) was > 100 µM. The EC50 (Punta Toro virus; [10]) was > 39 µM, the EC50 (Measles; read-out: EC50 Measles) was > 4 µM and the EC50 (Echovirus 6) was 2.3 ± 0.9 µM. It also gave a CC50 (RD cells) of 200 µM, a CC50 (Vero 76; [11]) of 50 µM and a CC50 (Vero 76; [12]) of 3.3 µM. The EC50 (Chikungunya) was 0.31 µM, the EC50 (Japanese Encephalitis) was > 0.014 µM and the CC50 (Vero) was 4.8 µM. For the same molecule, the EC50 (Echovirus 30) was 1.2 µM, the EC50 [5] was 0.33 ± 0.05 µM and the EC50 (Poliovirus 1) was 7 µM. The EC50 (Coxsackievirus B2; read-out: EC50 CVB2) was 2.8 ± 0.4 µM, the EC50 (Enterovirus D68/Fermon) was 0.35 ± 0.05 µM and the EC50 (SARS Coronavirus) was 3.2 µM.

For `CC(C)n1ncc2c(C(=O)Nc3ccc(F)cc3F)cc(-c3cccs3)nc21` [JX-008], the EC50 (Coxsackievirus A9; read-out: EC50 COX A9) was 2.3 ± 0.8 µM, the EC50 (Coxsackievirus B4; read-out: EC50 CVB4) was 2.3 µM and the EC50 (Coxsackievirus B3-H3; read-out: EC50 CVB3-H3) was 1.4 ± 0.5 µM. The EC50 (Coxsackievirus B1; read-out: EC50 CVB1) was 2.3 µM, the EC50 (Poliovirus 3) was > 25 µM and the EC50 (Echovirus 25) was 1.5 µM. For the same molecule, the EC50 (Yellow Fever Virus) was 45 µM, the CC50 (LLC cells) was > 200 µM and the EC50 [3] was 0.4 ± 0.17 µM. For the same molecule, the EC50 ([4]; read-out: EC50 RSV) was > 100 µM, the EC50 (Enterovirus 71; read-out: EC50 EV71) was 1.6 ± 0.4 µM and the CC50 (MA-104) was > 100 µM. The EC50 (Venezuelan Encephalitis) was > 0.48 µM, the EC50 (Echovirus 11) was 1.4 ± 0.4 µM and the CC50 (HeLa-RW cells) was > 200 µM. The EC50 (Rift Valley virus; [9]) was > 77 µM, the EC50 (Influenza A H1N1) was 70 µM and the CC50 (BHK) was 38 µM. The EC50 (Echovirus 9) was 1.5 ± 1 µM, the EC50 (Rabies) was > 100 µM and the EC50 (Echovirus 7) was 2.4 µM. The EC50 (Powassan) was > 38 µM, the EC50 (Coxsackievirus B5; read-out: EC50 CVB5) was 2.3 µM and the CC50 (BHK-21) was > 100 µM. The CC50 (MDCK) was > 100 µM, the EC50 (Punta Toro virus; [10]) was 23 µM and the EC50 (Measles; read-out: EC50 Measles) was 34 µM. For the same molecule, the EC50 (Echovirus 6) was 1.9 ± 0.7 µM, the CC50 (RD cells) was 100 µM and the CC50 (Vero 76; [11]) was 77 µM. For the same molecule, the CC50 (Vero 76; [12]) was > 100 µM, the EC50 (Chikungunya) was > 0.66 µM and the EC50 (Japanese Encephalitis) was > 0.44 µM. For the same molecule, the CC50 (Vero) was 50 µM, the EC50 (Echovirus 30) was 0.8 µM and the EC50 [5] was 0.28 ± 0.08 µM. The EC50 (Poliovirus 1) was > 25 µM, the EC50 (Coxsackievirus B2; read-out: EC50 CVB2) was 2.8 ± 0.4 µM and the EC50 (Enterovirus D68/Fermon) was 0.33 ± 0.06 µM. For the same molecule, the EC50 (SARS Coronavirus) was 68 µM.

In the case of `CC(C)n1ncc2c(N(C(=O)c3ccc(F)cc3)C(=O)c3ccc(F)cc3)cc(-c3cccs3)nc21` [JX-039], the EC50 (Coxsackievirus A9; [13]) is reported as 4.5 µM, the EC50 (Coxsackievirus B4; [14]) is reported as > 10 µM and the EC50 (Coxsackievirus B3-H3; [15]) is reported as 4.7 µM. For the same molecule, the EC50 (Coxsackievirus B1; [16]) was 4.7 µM, the EC50 (Poliovirus 3; Enterovirus C) was > 10 µM and the EC50 (Echovirus 25; Enterovirus B) was > 10 µM. The EC50 (Enterovirus 71; [17]) was 3.2 ± 0.1 µM, the EC50 (Echovirus 11; Enterovirus B) was > 10 µM and the EC50 (Echovirus 9; Enterovirus B) was > 10 µM. For the same molecule, the EC50 (Echovirus 7; Enterovirus B) was > 10 µM, the EC50 (Coxsackievirus B5; [18]) was > 10 µM and the EC50 (Echovirus 6; Enterovirus B) was 2.4 µM. For the same molecule, the EC50 (Echovirus 30; Enterovirus B) was > 10 µM, the EC50 (Poliovirus 1; Enterovirus C) was > 10 µM and the EC50 (Coxsackievirus B2; [19]) was 4.7 µM. For the same molecule, the CC50 (in vitro [6]) was 10 µM.

With `CC(C)n1ncc2c(NC(=O)c3ccc(F)cc3)cc(-c3cccs3)nc21` [JX-054] the EC50 (Coxsackievirus A9; [13]) was 4.7 µM, the EC50 (Coxsackievirus B4; [14]) was 4.7 µM and the EC50 (Coxsackievirus B3-H3; [15]) was 4.7 µM. The EC50 (Coxsackievirus B1; [16]) was 4.7 µM, the EC50 (Poliovirus 3; Enterovirus C) was > 10 µM and the CC50 (in vitro [7]) was 50 µM. For the same molecule, the EC50 ([3]; Enterovirus D) was 3.4 ± 1.18 µM, the EC50 (Enterovirus 71; [17]) was 4 µM and the EC50 (Echovirus 11; Enterovirus B) was 3.1 µM. It also gave an EC50 (Echovirus 9; Enterovirus B) of 2.4 µM, an EC50 (Echovirus 7; Enterovirus B) of 4.7 µM and an EC50 (Coxsackievirus B5; [18]) of 4.7 µM. For the same molecule, the EC50 (Echovirus 30; Enterovirus B) was 4.7 µM, the EC50 ([5]; Enterovirus D) was 2.53 ± 0.23 µM and the EC50 (Poliovirus 1; Enterovirus C) was > 10 µM. For the same molecule, the EC50 (Coxsackievirus B2; [19]) was 4.7 µM and the EC50 (Enterovirus D68/Fermon; Enterovirus D) was 2.4 µM.

`NC(=O)c1ncn([C@@H]2O[C@H](CO)[C@@H](O)[C@H]2O)n1` [Ribavirin, reference compound] showed an EC50 ([4]; human respiratory syncytial virus, MA104, read-out: EC50 RSV) of 12 µM, an EC50 (Rift Valley virus; Vero 76, read-out: EC50 Rift Valley virus) of 9.1 µM and an EC50 (Influenza A H1N1; Influenza A virus, H1N1, MDCK) of 7.5 µM. The CC50 (in vitro [8]) was > 320 µM and the EC50 (Punta Toro virus; Punta Toro virus, Vero 76, read-out: EC50 Punta Toro virus) was 11 µM.
